Measurements: patent US10308660B2, “Compounds and compositions for inhibiting the activity of SHP2” (Novartis AG, priority 2015, dated 2019)

target: SHP2 (Homo sapiens (Human), UniProt Q06124); assay: SHP2 allosteric inhibition assay (DiFMUP prompt fluorescence); format: biochemical; details: 0.5 nM SHP2 activated with 0.5 μM peptide IRS1_pY1172(dPEG8)pY1222; substrate DiFMUP; 25° C.

SMILES	IC50
C[C@@H]1CC2(CCN(c3nc(N)c(Sc4ccnc(N)c4Cl)c(=O)n3C)CC2)[C@@H](N)[C@H]1F (single isomer, unassigned) [Example 37]	47 nM
C[C@@H]1OCC2(CCN(c3ncc(-c4cccc(Cl)c4Cl)c(=O)[nH]3)CC2)[C@@H]1N [Example 201]	3340 nM
C[C@H]1C[C@@H](N)C2(CCN(c3nc(N)c(Sc4cccc(N)c4Cl)c(=O)n3C)CC2)C1 [Example 60]	16 nM
COc1ccccc1Sc1c(N)nc(N2CCC(C)(CN)CC2)n(C)c1=O [Example 47]	206 nM
C[C@H]1C[C@@H](N)C2(CCN(c3ncc(Sc4cccnc4C(F)(F)F)c(=O)n3C)CC2)C1 [Example 114]	50 nM
Cn1c(N2CCC(C)(CN)CC2)nc(N)c(Sc2ccccc2Br)c1=O [Example 45]	137 nM
Cn1c(N2CCC3(CCC[C@H]3N)CC2)nc(N)c(Sc2cccc(Cl)c2Cl)c1=O [Example 13]	39 nM
Cn1c(N2CCC(C)(CN)CC2)nc(N)c(Sc2cccc3ccccc23)c1=O [Example 55]	45 nM
Cn1c(N2CCC(C)(CN)CC2)nc(N)c(Sc2cccnc2C(F)(F)F)c1=O [Example 7]	109 nM
Cn1c(N2CCC(C)(CN)CC2)nc(N)c(Sc2ccccc2OC(F)(F)F)c1=O [Example 46]	89 nM
C[C@H]1C[C@@H](N)C2(CCN(c3nc(N)c(Sc4cc(N)cnc4Cl)c(=O)n3C)CC2)C1 [Example 68]	10 nM
Cn1c(N2CCC(C)(CN)CC2)ccc(Sc2cccc(Cl)c2Cl)c1=O [Example 116, 6-(4-(aminomethyl)-4-methylpiperidin-1-yl)-3-((2,3-dichlorophenyl)thio)-1-methylpyridin-2(1H)-one]	1620 nM
Cn1c(N2CCC(C)(CN)CC2)nc(N)c(Sc2cccc(N)c2Cl)c1=O [Example 8]	232 nM
CC1(CN)CCN(c2nc(N)c(Sc3cccnc3C(F)(F)F)c(=O)[nH]2)CC1 [Example 90, 6-amino-2-(4-(aminomethyl)-4-methylpiperidin-1-yl)-5-((2-(trifluoromethyl)pyridin-3-yl)thio)pyrimidin-4(3H)-one]	66 nM
Cn1c(N2CCC3(CC2)COC[C@H]3N)nc(N)c(Sc2cccc(Cl)c2Cl)c1=O [Example 72]	33 nM
Cn1c(N2CCC3(CC2)COC[C@H]3N)nc(N)c(Sc2cccnc2C(F)(F)F)c1=O [Example 63]	34 nM
Cn1c(N2CCC3(CC[C@@H]3N)CC2)ncc(Sc2cccc(Cl)c2Cl)c1=O [Example 104]	109 nM
Cn1c(N2CCC(C)(CN)CC2)nc(N)c(Sc2cccc3ncccc23)c1=O [Example 24]	299 nM
Cn1c(N2CCC3(CCC[C@H]3N)CC2)ncc(Sc2cccc(Cl)c2Cl)c1=O [Example 109]	26 nM
CC[C@@H]1OCC2(CCN(c3nc(N)c(Sc4cccnc4C(F)(F)F)c(=O)n3C)CC2)[C@@H]1N [Example 87]	21 nM
C[C@H]1C[C@@H](N)C2(CCN(c3nc(N)c(Sc4ccncc4Cl)c(=O)n3C)CC2)C1 [Example 76]	27 nM
C[C@@H]1OCC2(CCN(c3ncc(Sc4cccc(Cl)c4Cl)c(=O)[nH]3)CC2)[C@@H]1N [Example 97]	9 nM
Cn1c(N2CCC(C)(CN)CC2)nc(N)c(Sc2cccc(Cl)c2)c1=O [Example 5]	2210 nM
Cn1c(N2CCC(C)(CN)CC2)nc(N)c(Sc2cccc(C#N)c2)c1=O [Example 10]	5630 nM
C[C@H]1C[C@@H](N)C2(CCN(c3nc(N)c(Sc4cc(N)ccc4Cl)c(=O)n3C)CC2)C1 [Example 69]	10 nM

Next, values leading:

IC50	SMILES
14 nM	C[C@H]1C[C@@H](N)C2(CCN(c3nc(N)c(-c4ccc(F)c(F)c4)c(=O)n3C)CC2)C1 [Example 127]
15 nM	C[C@@H]1OCC2(CCN(c3nc(N)c(Sc4ccc(F)cc4Cl)c(=O)n3C)CC2)[C@@H]1N [Example 81]
174 nM	C[C@H]1C[C@@H](N)C2(CCN(c3nc(N)c(-c4ccc(Cl)cc4)c(=O)n3C)CC2)C1 [Example 172]
27 nM	Cn1c(N2CCC3(CCC[C@H]3N)CC2)nc(N)c(-c2ccccc2)c1=O [Example 191]
68 nM	Cc1ncccc1Sc1c(N)nc(N2CCC3(CC2)CO[C@@H](C)[C@H]3N)n(C)c1=O [Example 80]
56 nM	COc1ccc(-c2c(N)nc(N3CCC4(CC3)CO[C@@H](C)[C@H]4N)n(C)c2=O)cc1 [Example 159]
2120 nM	C[C@@H]1OCC2(CCN(c3nc(N)c(-c4ccc(N5CCOCC5)cc4)c(=O)n3C)CC2)[C@@H]1N [Example 185]
44 nM	C[C@@H]1OCC2(CCN(c3nc(N)c(-c4cccc(F)c4)c(=O)n3C)CC2)[C@@H]1N [Example 151]
14 nM	C[C@@H]1OCC2(CCN(c3nc(N)c(-c4ccc(SC(F)(F)F)cc4)c(=O)n3C)CC2)[C@@H]1N [Example 130]
14 nM	C[C@@H]1OCC2(CCN(c3nc(N)c(Sc4cc(N)nc(Cl)c4Cl)c(=O)n3C)CC2)[C@@H]1N [Example 19]
172 nM	C[C@@H]1OCC2(CCN(c3nc(N)c(-c4cncc(Cl)c4)c(=O)n3C)CC2)[C@@H]1N [Example 171]
45 nM	C[C@@H]1OCC2(CCN(c3nc(N)c(-c4ccccc4Cl)c(=O)n3C)CC2)[C@@H]1N [Example 152]
8 nM	COc1nccc(Sc2cnc(N3CCC4(CC3)CO[C@@H](C)[C@H]4N)n(C)c2=O)c1Cl [Example 105]
271 nM	Cc1ccccc1-c1c(N)nc(N2CCC3(CC2)CO[C@@H](C)[C@H]3N)n(C)c1=O [Example 176]
19 nM	C[C@H]1C[C@@H](N)C2(CCN(c3nc(N)c(-c4ccc(SC(F)(F)F)cc4)c(=O)n3C)CC2)C1 [Example 134]
25 nM	C[C@@H]1OCC2(CCN(c3nc(N)c(-c4ccc(OC5CC5)cc4)c(=O)n3C)CC2)[C@@H]1N [Example 139]
30 nM	COc1cccc(Sc2cnc(N3CCC4(CC3)CO[C@@H](C)[C@H]4N)n(C)c2=O)c1Cl [Example 106]
66 nM	COc1ccc(-c2c(N)nc(N3CCC4(CC3)CO[C@@H](C)[C@H]4N)n(C)c2=O)cc1Cl [Example 162]
48 nM	C[C@@H]1OCC2(CCN(c3nc(N)c(-c4ccc(F)cc4F)c(=O)n3C)CC2)[C@@H]1N [Example 156]
26 nM	C[C@@H]1OCC2(CCN(c3nc(N)c(-c4ccc(Cl)c(F)c4)c(=O)n3C)CC2)[C@@H]1N [Example 141]
48 nM	Cn1c(N2CCC3(CC2)C[C@H](F)C[C@H]3N)nc(N)c(-c2cccc(Cl)c2Cl)c1=O [Example 155]
27 nM	C[C@@H]1OCC2(CCN(c3nc(N)c(-c4ccc(Oc5ccccc5)cc4)c(=O)n3C)CC2)[C@@H]1N [Example 142]
34 nM	C[C@@H]1OCC2(CCN(c3nc(N)c(-c4ccc(OC(F)F)cc4)c(=O)n3C)CC2)[C@@H]1N [Example 145]
78 nM	C[C@@H]1CC2(CCN(c3nc(N)c(-c4ccccc4)c(=O)n3C)CC2)[C@H](N)C1(F)F [Example 165]
43 nM	C[C@@H]1OCC2(CCN(c3nc(N)c(Sc4ccnc(C(F)(F)F)c4Cl)c(=O)n3C)CC2)[C@@H]1N [Example 59]
89 nM	C[C@@H]1CC2(CCN(c3nc(N)c(-c4cccc(Cl)c4Cl)c(=O)n3C)CC2)[C@H](N)C1(F)F [Example 167]
46 nM	Cn1c(N2CCC3(CC2)C[C@H](F)C[C@H]3N)nc(N)c(-c2ccccc2)c1=O [Example 154]
